Tests used:
[1] = system: Italian ryegrass (Lolium multiflorum); assay: Test A preemergence; type: in vivo; conditions: Lolium multiflorum, pre-emergence, 240 h, 0 to 100 scale (0 no effect, 100 complete control), read-out: Ryegrass, Italian plant response rating
In short: (§1)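 Pre- and postemergence greenhouse screen. Soil: loam + sand. Spray carrier: solvent mixture, non-phytotoxic, with surfactant. Post timing at 1–2 leaves, height 2–10 cm. Readout: visual injury on a 0–100 scale roughly 10 days after application, untreated plants as reference.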

[2] = system: barnyardgrass (Echinochloa crus-galli); assay: Test A preemergence; type: in vivo; conditions: Echinochloa crus-galli, pre-emergence, 240 h
In short: as §1

[3] = system: giant foxtail (Setaria faberii); assay: Test A preemergence; type: in vivo; conditions: Setaria faberi, pre-emergence, 240 h, 0 to 100 scale (0 no effect, 100 complete control), read-out: Foxtail, Giant plant response rating
In short: as §1

kochia (Kochia scoparia) [4] = assay: Test A preemergence; type: in vivo; conditions: Bassia scoparia, pre-emergence, 240 h, 0 to 100 scale (0 no effect, 100 complete control), read-out: Kochia plant response rating
In short: as §1

[5] = system: pigweed (Amaranthus retroflexus); assay: Test A preemergence; type: in vivo; conditions: Amaranthus retroflexus, pre-emergence, 240 h, 0 to 100 scale (0 no effect, 100 complete control), read-out: Pigweed plant response rating
In short: as §1

[6] = system: ragweed (common ragweed, Ambrosia elatior); assay: Test A preemergence; type: in vivo; conditions: Ambrosia artemisiifolia, pre-emergence, 240 h, 0 to 100 scale (0 no effect, 100 complete control), read-out: Ragweed plant response rating
In short: as §1

[7] = system: Italian ryegrass (Lolium multiflorum); assay: Test A postemergence; type: in vivo; conditions: Lolium multiflorum, post-emergence, 240 h, 0 to 100 scale, read-out: Plant response rating, Ryegrass, Italian
In short: as §1

[8] = system: barnyardgrass (Echinochloa crus-galli); assay: Test A postemergence; type: in vivo; conditions: Echinochloa crus-galli, post-emergence, 240 h, 0 to 100 scale, read-out: Plant response rating, Barnyardgrass
In short: as §1

[9] = system: blackgrass (Alopecurus myosuroides); assay: Test A postemergence; type: in vivo; conditions: Alopecurus myosuroides, post-emergence, 240 h, 0 to 100 scale, read-out: Plant response rating, Blackgrass
In short: as §1

corn (Zea mays) = assay: Test A postemergence; type: in vivo; conditions: Zea mays, post-emergence, 240 h, 0 to 100 scale
In short: as §1

[10] = system: galium (catchweed bedstraw, Galium aparine); assay: Test A postemergence; type: in vivo; conditions: Galium, post-emergence, 240 h, 0 to 100 scale, read-out: Plant response rating, Galium
In short: as §1

[11] = system: giant foxtail (Setaria faberii); assay: Test A postemergence; type: in vivo; conditions: Setaria faberi, post-emergence, 240 h, 0 to 100 scale, read-out: Plant response rating, Foxtail, Giant
In short: as §1

kochia (Kochia scoparia) [12] = assay: Test A postemergence; type: in vivo; conditions: Bassia scoparia, post-emergence, 240 h, 0 to 100 scale, read-out: Plant response rating, Kochia
In short: as §1

[13] = system: pigweed (Amaranthus retroflexus); assay: Test A postemergence; type: in vivo; conditions: Amaranthus retroflexus, post-emergence, 240 h, 0 to 100 scale, read-out: Plant response rating, Pigweed
In short: as §1

[14] = system: ragweed (common ragweed, Ambrosia elatior); assay: Test A postemergence; type: in vivo; conditions: Ambrosia artemisiifolia, post-emergence, 240 h, 0 to 100 scale, read-out: Plant response rating, Ragweed
In short: as §1

[15] = system: wheat (Triticum aestivum); assay: Test A postemergence; type: in vivo; conditions: Triticum aestivum, post-emergence, 240 h, 0 to 100 scale, read-out: Plant response rating, Wheat
In short: as §1

Compound `Fc1cnc(Oc2c(F)ccc(F)c2Oc2ncc(Cl)cn2)nc1` [Compound 28] has a pest or weed control at 31 g/ha ([1]; 31 g ai/ha) of 0%, a pest or weed control at 125 g/ha ([1]; 125 g ai/ha) of 0% and a pest or weed control at 31 g/ha ([2]; 31 g ai/ha, 0 to 100 scale (0 no effect, 100 complete control), read-out: Barnyardgrass plant response rating) of 0%. It also gave a pest or weed control at 125 g/ha ([2]; 125 g ai/ha, 0 to 100 scale, read-out: Plant response rating, Barnyardgrass) of 10%, a pest or weed control at 31 g/ha ([3]; 31 g ai/ha) of 10% and a pest or weed control at 125 g/ha ([3]; 125 g ai/ha) of 40%. The pest or weed control at 31 g/ha (kochia (Kochia scoparia) [4]; 31 g ai/ha) was 0%, the pest or weed control at 125 g/ha (kochia (Kochia scoparia) [4]; 125 g ai/ha) was 20% and the pest or weed control at 31 g/ha ([5]; 31 g ai/ha) was 50%. It also gave a pest or weed control at 125 g/ha ([5]; 125 g ai/ha) of 80%, a pest or weed control at 31 g/ha ([6]; 31 g ai/ha) of 0% and a pest or weed control at 125 g/ha ([6]; 125 g ai/ha) of 0%. It also gave a pest or weed control at 31 g/ha ([7]; 31 g ai/ha) of 0%, a pest or weed control at 125 g/ha ([7]; 125 g ai/ha) of 0% and a pest or weed control at 31 g/ha ([8]; 31 g ai/ha) of 0%. It also gave a pest or weed control at 125 g/ha ([8]; 125 g ai/ha) of 0%, a pest or weed control at 31 g/ha ([9]; 31 g ai/ha) of 0% and a pest or weed control at 125 g/ha ([9]; 125 g ai/ha) of 20%. The Corn plant response rating (crop injury, 0 = no effect, 100 = complete kill) at 31 g/ha (corn (Zea mays); 31 g ai/ha) was 0%, the Corn plant response rating (crop injury, 0 = no effect, 100 = complete kill) at 125 g/ha (corn (Zea mays); 125 g ai/ha) was 0% and the pest or weed control at 31 g/ha ([10]; 31 g ai/ha) was 20%. For the same compound, the pest or weed control at 125 g/ha ([10]; 125 g ai/ha) was 70%, the pest or weed control at 31 g/ha ([11]; 31 g ai/ha) was 0% and the pest or weed control at 125 g/ha ([11]; 125 g ai/ha) was 20%. It also gave a pest or weed control at 31 g/ha (kochia (Kochia scoparia) [12]; 31 g ai/ha) of 30%, a pest or weed control at 125 g/ha (kochia (Kochia scoparia) [12]; 125 g ai/ha) of 70% and a pest or weed control at 31 g/ha ([13]; 31 g ai/ha) of 50%. The pest or weed control at 125 g/ha ([13]; 125 g ai/ha) was 60%, the pest or weed control at 31 g/ha ([14]; 31 g ai/ha) was 10% and the pest or weed control at 125 g/ha ([14]; 125 g ai/ha) was 30%. It also gave a plant injury at 31 g/ha ([15]; 31 g ai/ha) of 0%, a plant injury at 125 g/ha ([15]; 125 g ai/ha) of 0% and a melting point of 94 to 98 °C.

— patent US20170190671A1, “BIS(ARYL)CATECHOL DERIVATIVES AS HERBICIDES” (E I DU PONT DE NEMOURS AND COMPANY, priority 2014, published 2017)
